Here are results for 19 molecules from patent US20240391931A1 (Bristol-Myers Squibb Company, priority 2021, published 2024).

The IC50 is the concentration that inhibits the measured activity by half. A lower IC50 goes with greater potency. In general, EC50 refers to the concentration that produces a half-maximal response. Read a high EC50 as lower potency in that assay.

Bounds are passed on as bounds.

The target of one test is T1, HER2 WT (Homo sapiens, UniProt P04626).
T1 construct: purchased ProQinase, Freiburg, Germany ERBB2 0108-0000-1
T1 sequence (P04626 23-1255): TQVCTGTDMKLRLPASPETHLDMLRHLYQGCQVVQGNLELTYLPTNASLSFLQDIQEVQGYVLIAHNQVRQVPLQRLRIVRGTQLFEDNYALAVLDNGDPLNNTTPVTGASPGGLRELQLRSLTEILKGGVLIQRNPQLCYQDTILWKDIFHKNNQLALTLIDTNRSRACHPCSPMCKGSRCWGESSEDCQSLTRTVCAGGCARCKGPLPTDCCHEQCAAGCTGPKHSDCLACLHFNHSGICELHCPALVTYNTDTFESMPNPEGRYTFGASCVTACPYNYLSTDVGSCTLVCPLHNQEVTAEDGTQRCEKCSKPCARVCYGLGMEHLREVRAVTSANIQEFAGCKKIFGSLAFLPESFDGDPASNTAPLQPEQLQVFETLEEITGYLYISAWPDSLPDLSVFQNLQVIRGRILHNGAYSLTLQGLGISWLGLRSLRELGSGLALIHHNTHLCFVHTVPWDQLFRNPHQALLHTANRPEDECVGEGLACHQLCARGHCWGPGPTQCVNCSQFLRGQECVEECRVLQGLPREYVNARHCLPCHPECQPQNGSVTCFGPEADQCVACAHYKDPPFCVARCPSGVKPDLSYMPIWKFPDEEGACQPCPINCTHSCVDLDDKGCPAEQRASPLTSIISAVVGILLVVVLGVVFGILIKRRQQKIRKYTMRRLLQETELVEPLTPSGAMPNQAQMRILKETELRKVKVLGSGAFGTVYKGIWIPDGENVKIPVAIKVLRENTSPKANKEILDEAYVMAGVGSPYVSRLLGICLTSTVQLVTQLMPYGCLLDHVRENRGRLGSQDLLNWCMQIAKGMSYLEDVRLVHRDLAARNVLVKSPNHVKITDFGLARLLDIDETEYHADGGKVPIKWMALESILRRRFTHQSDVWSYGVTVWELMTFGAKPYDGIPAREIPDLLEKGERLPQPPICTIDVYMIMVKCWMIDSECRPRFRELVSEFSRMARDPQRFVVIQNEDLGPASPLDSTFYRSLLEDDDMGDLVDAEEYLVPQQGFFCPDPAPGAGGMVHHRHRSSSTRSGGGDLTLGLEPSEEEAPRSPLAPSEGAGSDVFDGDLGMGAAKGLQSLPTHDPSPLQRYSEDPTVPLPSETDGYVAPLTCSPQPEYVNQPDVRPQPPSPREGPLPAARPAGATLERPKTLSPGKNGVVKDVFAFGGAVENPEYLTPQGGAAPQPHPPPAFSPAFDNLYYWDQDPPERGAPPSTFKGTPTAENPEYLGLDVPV
The experiment in a line: Enzymatic assay HER2 WT (method a). The format is biochemical. To be noted: [HER2 WT]=12.5 nM, [ATP]=25 μM, [Peptide 22]=1 μM. The essentials: (§1)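 Initial rates over 0–3600 s, read as substrate-to-product conversion by capillary electrophoresis, were converted to percent inhibition and fitted with a variable-slope curve to give IC50. Conditions: EGFR WT 2 nM with 1 mM ATP; HER2 YVMA 5 nM or HER2 WT 12.5 nM, each with 25 μM ATP. All used 1 μM Peptide 22 in pH 7.5 HEPES/Mn/Mg buffer.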

The target in a further test is HER2YVMA (Homo sapiens, UniProt P04626, INS775YVMA). Nature of the test: Enzymatic assay HER2YVMA (method b). The following applies: [HER2YVMA]=5 nM, [ATP]=25 μM, [Peptide 22]=1 μM. On the set-up: purchased Viva biotech, Shanghai, China custom purification. It counts as biochemical. The gist of the method:
as §1

The next test addresses T2, EGFR WT (Homo sapiens, UniProt P00533).
T2 construct: purchased Thermo Fisher, Carlsbad, CA ERBB1 PR7295B
Nature of the test: Enzymatic assay EGFR WT (method c). It counts as biochemical. The following applies: [EGFR WT]=2 nM, [ATP]=1 mM, [Peptide 22]=1 μM. The essentials: as §1

The target of test [1] is T3, HER2 wildtype (WT) protein (Homo sapiens, UniProt P04626).
T3 construct: BT474 and N87 cell lines which endogenously overexpress the HER2 wildtype (WT) protein; endogenous in cells; host or cells: BT474, N87
T3 sequence (P04626 23-1255): as above
Nature of the test: HER2 signaling (pHER2 Tyr1248/total HER2 MSD) in BT474 cells. The format is cell-based. To be noted: 1.5 hr compound, 1% FBS. The essentials: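 BT474, N87 (HER2 WT) and NCI-H1781 (HER2 G776delinsVC) cells were treated for 1.5 h at 37° C in 1% FBS medium with compound at 0.0005–1.1 μM. pHER2 Tyr1248 was measured by MSD on whole-cell lysates and normalized to total HER2 as % DMSO. EC50 came from a variable-slope sigmoidal fit.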

T2 sequence (P00533 25-1210): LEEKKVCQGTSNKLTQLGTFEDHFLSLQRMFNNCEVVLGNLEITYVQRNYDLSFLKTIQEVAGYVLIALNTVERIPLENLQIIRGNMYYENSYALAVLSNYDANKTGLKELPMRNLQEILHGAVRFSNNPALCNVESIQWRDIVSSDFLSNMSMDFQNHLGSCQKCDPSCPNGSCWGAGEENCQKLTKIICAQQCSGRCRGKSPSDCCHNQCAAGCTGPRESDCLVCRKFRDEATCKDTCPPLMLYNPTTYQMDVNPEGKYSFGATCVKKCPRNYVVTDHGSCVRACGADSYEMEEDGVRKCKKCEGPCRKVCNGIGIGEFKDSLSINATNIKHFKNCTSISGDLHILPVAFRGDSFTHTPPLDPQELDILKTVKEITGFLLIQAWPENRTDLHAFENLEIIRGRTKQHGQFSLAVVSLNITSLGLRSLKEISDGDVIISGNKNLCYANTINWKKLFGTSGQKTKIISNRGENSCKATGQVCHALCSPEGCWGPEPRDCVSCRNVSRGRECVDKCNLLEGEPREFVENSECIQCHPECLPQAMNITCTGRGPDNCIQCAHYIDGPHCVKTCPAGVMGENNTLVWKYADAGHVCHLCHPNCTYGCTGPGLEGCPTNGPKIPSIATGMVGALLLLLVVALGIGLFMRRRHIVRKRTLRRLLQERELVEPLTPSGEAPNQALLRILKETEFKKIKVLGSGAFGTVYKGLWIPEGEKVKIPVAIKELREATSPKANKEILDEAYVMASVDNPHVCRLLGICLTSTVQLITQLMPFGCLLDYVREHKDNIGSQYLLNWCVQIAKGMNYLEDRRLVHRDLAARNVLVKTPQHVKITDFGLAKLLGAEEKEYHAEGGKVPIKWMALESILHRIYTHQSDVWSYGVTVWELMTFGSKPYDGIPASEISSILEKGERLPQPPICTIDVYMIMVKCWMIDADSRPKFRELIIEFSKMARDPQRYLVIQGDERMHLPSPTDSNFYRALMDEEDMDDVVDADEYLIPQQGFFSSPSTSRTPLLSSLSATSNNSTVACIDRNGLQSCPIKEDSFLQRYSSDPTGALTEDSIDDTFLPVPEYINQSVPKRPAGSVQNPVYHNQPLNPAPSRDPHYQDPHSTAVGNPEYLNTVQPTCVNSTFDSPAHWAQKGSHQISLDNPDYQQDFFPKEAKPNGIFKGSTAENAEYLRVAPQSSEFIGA
Sequence of HER2YVMA (P04626 with tags, fused parts or gaps INS775YVMA): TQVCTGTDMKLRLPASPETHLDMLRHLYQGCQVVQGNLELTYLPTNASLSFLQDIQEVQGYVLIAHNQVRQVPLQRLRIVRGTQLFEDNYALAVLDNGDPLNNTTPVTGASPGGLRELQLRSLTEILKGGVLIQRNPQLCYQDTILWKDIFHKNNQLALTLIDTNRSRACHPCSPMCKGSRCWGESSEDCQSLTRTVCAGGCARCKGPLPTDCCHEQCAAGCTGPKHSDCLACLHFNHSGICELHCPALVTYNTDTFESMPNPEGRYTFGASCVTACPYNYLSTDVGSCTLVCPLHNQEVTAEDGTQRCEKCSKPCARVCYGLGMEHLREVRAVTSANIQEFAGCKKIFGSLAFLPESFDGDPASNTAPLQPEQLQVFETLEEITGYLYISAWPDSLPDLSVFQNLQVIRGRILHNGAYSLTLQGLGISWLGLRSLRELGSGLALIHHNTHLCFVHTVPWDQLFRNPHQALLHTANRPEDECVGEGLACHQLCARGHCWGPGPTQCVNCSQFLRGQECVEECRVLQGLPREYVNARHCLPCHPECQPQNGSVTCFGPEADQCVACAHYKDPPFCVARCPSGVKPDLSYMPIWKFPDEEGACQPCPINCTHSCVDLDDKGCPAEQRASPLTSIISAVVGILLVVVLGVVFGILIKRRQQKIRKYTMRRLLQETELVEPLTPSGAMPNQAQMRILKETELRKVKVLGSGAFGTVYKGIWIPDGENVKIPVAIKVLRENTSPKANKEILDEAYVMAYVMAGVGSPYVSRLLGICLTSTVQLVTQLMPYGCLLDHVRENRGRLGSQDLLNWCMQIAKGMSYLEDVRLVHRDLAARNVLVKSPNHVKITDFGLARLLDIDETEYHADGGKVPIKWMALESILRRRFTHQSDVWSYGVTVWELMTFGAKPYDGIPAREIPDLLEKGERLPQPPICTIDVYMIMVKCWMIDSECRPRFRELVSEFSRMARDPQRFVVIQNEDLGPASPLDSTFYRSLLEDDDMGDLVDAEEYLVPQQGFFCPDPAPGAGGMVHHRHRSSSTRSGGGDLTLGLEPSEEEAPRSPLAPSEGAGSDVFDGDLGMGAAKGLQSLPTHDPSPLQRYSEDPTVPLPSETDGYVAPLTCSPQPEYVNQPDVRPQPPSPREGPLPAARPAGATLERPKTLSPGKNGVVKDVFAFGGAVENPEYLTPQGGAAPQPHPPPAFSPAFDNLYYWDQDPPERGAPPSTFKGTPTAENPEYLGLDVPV

Turning to `Cc1ccc(Oc2ccc(Nc3ncnc4sc5c(c34)CCN(C(=O)/C=C/CNCCS(C)(=O)=O)C5)cc2C)cn1` [Compound 45], the IC50 was less than 100 nM against HER2 WT, less than 100 nM against HER2YVMA and greater than 10000 nM at EGFR WT. In test [1], the concentration giving a half-maximal response (EC50) is less than 100 nM.
As to `O=C(/C=C/CN1CC2CC(C2)C1)N1CCc2c(sc3ncnc(Nc4ccc(Oc5ccc6ncnn6c5)c(Cl)c4)c23)C1` [Compound 85], the 50% inhibitory concentration (IC50) at HER2 WT was less than 100 nM; at HER2YVMA, less than 100 nM; at EGFR WT, 1000 to 10000 nM. This molecule also came in with an EC50 in test [1] of less than 100 nM.
As for `Cc1cc(Nc2ncnc3sc4c(c23)CCN(C(=O)/C=C/CN2CC3CC(C3)C2)C4)ccc1Oc1ccc2ncnn2c1` [Compound 82], the results for the IC50 against HER2 WT, against HER2YVMA and at EGFR WT were less than 100 nM, less than 100 nM and greater than 10000 nM, respectively. For the same molecule, the EC50 in test [1] is less than 100 nM.
Regarding `Cc1ccc(Oc2ccc(Nc3ncnc4sc5c(c34)C(C)CN(C(=O)/C=C/CN(C)C)C5)cc2C)cn1` (stereo not shown) [Compound 98, (E)-4-(dimethylamino)-1-(5-methyl-4-((3-methyl-4-((6-methylpyridin-3-yl)oxy)phenyl)amino)-5,8-dihydropyrido[4′,3′:4,5]thieno[2,3-d]pyrimidin-7(6H)-yl)but-2-en-1-one], the IC50 against HER2 WT is less than 100 nM; on HER2YVMA it was less than 100 nM; against EGFR WT, greater than 10000 nM. Besides, in test [1], the EC50 is less than 100 nM.
For `Cc1cc(Nc2ncnc3sc4c(c23)CCN(C(=O)/C=C/CN(C)C)C4)ccc1Oc1ccc2nonc2c1` [Compound 104, (E)-1-(4-((4-(Benzo[c][1,2,5]oxadiazol-5-yloxy)-3-methylphenyl)amino)-5,6-dihydropyrido[4′,3′:4,5]thieno[2,3-d]pyrimidin-7(8H)-yl)-4-(dimethylamino)but-2-en-1-one], the IC50 against HER2 WT was less than 100 nM; against HER2YVMA, less than 100 nM; against EGFR WT, greater than 10000 nM. In test [1], the EC50 was less than 100 nM.
As for `Cc1ccc(Oc2ccc(Nc3ncnc4sc5c(c34)CCN(C(=O)/C=C/CN3CCCC3C(N)=O)C5)cc2C)cn1` (stereo not shown) [Compound 41], the half-maximal inhibitory concentration (IC50) was less than 100 nM against HER2 WT, less than 100 nM at HER2YVMA and 1000 to 10000 nM on EGFR WT. The molecule also had an EC50 in test [1] of less than 100 nM.
Consider `C=CC(=O)N1CCc2[nH]c3ncnc(Nc4ccc(Oc5ccc(C)nc5)c(C)c4)c3c2C1` [Compound 94, 1-(4-((3-methyl-4-((6-methylpyridin-3-yl)oxy)phenyl)amino)-7,8-dihydro-5H-pyrido[3′,4′:4,5]pyrrolo[2,3-d]pyrimidin-6(9H)-yl)prop-2-en-1-one], for which the figures for the IC50 on HER2 WT, at HER2YVMA and against EGFR WT were less than 100 nM, less than 100 nM and greater than 10000 nM, respectively. Also, in test [1], the EC50 was less than 100 nM.
With `Cc1ccc(Oc2ccc(Nc3ncnc4sc5c(c34)CCN(C(=O)/C=C/CN3CCC4(CCOC4)C3)C5)cc2C)cn1` (stereo not shown) [Compound 67], the IC50 on HER2 WT was less than 100 nM; at HER2YVMA, less than 100 nM; on EGFR WT it was greater than 10000 nM. Besides, in test [1], the EC50 is less than 100 nM.
Take `CC(=O)N1CCN(C/C=C/C(=O)N2CCc3c(sc4ncnc(Nc5ccc(Oc6ccc(C)nc6)c(C)c5)c34)C2)CC1` [Compound 51]: the IC50 against HER2 WT is less than 100 nM; on HER2YVMA, 100 to 1000 nM; against EGFR WT it was greater than 10000 nM. The molecule further returned an EC50 in test [1] of 100 to 350 nM.
For `Cc1cc(Nc2ncnc3sc4c(c23)CCN(C(=O)/C=C/CN(C)C)C4)ccc1Oc1ccc2cn[nH]c2c1` [Compound 23, (E)-1-(4-((4-((1H-indazol-6-yl)oxy)-3-methylphenyl)amino)-5,8-dihydropyrido[4′,3′:4,5]thieno[2,3-d]pyrimidin-7(6H)-yl)-4-(dimethylamino)but-2-en-1-one] the same measures were less than 100 nM, less than 100 nM, 1000 to 10000 nM and less than 100 nM.
With `Cc1ccc(Oc2ccc(Nc3ncnc4sc5c(c34)CCN(C(=O)/C=C/CNC3CC3)C5)cc2C)cn1` [Compound 40], the IC50 is less than 100 nM at HER2 WT, less than 100 nM against HER2YVMA and 1000 to 10000 nM on EGFR WT. Also, the EC50 in test [1] was less than 100 nM.
`Cc1ccc(Oc2ccc(Nc3ncnc4sc5c(c34)CCN(C(=O)/C=C/CNCc3cc(C)n[nH]3)C5)cc2C)cn1` [Compound 49]: the IC50 against HER2 WT is less than 100 nM; at HER2YVMA it was less than 100 nM; on EGFR WT, 1000 to 10000 nM. Further, the concentration for a half-maximal effect (EC50) in test [1] was less than 100 nM.
As for `Cc1ccc(Oc2ccc(Nc3ncnc4sc5c(c34)CCN(C(=O)/C=C/CNCC3CN(C)CCO3)C5)cc2C)cn1` (stereo not shown) [Compound 48], the IC50 on HER2 WT was less than 100 nM; at HER2YVMA, less than 100 nM; at EGFR WT, greater than 10000 nM. Also, the EC50 in test [1] was less than 100 nM.
For the molecule `O=C(/C=C/CN1CC2CC1CO2)N1CCc2c(sc3ncnc(Nc4ccc(Oc5ccc6ncnn6c5)c(Cl)c4)c23)C1` (stereo not shown) [Compound 87], the IC50 against HER2 WT is less than 100 nM; against HER2YVMA, less than 100 nM; against EGFR WT, 1000 to 10000 nM. Moreover, the EC50 in test [1] is less than 100 nM.
Take `Cc1ccc(Oc2ccc(Nc3ncnc4sc5c(c34)CCN(C(=O)/C=C/CN[C@H]3CCC[C@H](O)C3)C5)cc2C)cn1` [Compound 73]: the IC50 on HER2 WT was less than 100 nM; against HER2YVMA, less than 100 nM; on EGFR WT, 1000 to 10000 nM. In test [1], the EC50 was less than 100 nM.
As for `Cc1ccc(Oc2ccc(Nc3ncnc4sc5c(c34)CCN(C(=O)/C=C/CN(C)C)CC5)cc2C)cn1` [Compound 100, (E)-4-(dimethylamino)-1-(4-((3-methyl-4-((6-methylpyridin-3-yl)oxy)phenyl)amino)-8,9-dihydro-5H-pyrimido[5′,4′:4,5]thieno[2,3-d]azepin-7(6H)-yl)but-2-en-1-one], the IC50 at HER2 WT is 100 to 1000 nM; on HER2YVMA it was 100 to 1000 nM; on EGFR WT, greater than 10000 nM. Further, in test [1], the EC50 is less than 100 nM.
For `Cc1ccc(Oc2ccc(Nc3ncnc4sc5c(c34)CCN(C(=O)/C=C/CN3CC4(C3)CS(=O)(=O)C4)C5)cc2C)cn1` [Compound 57], the results for the IC50 at HER2 WT, against HER2YVMA and on EGFR WT were less than 100 nM, less than 100 nM and greater than 10000 nM, respectively. This molecule had an EC50 in test [1] of less than 100 nM.
As for `Cc1cc(Nc2ncnc3sc4c(c23)CCN(C(=O)/C=C/CN(C)C(C)(C)C)C4)ccc1Oc1ccc2ncnn2c1` [Compound 80], the concentration for half-maximal inhibition (IC50) is less than 100 nM against HER2 WT, less than 100 nM on HER2YVMA and greater than 10000 nM against EGFR WT. The same molecule had an EC50 in test [1] of less than 100 nM.
Regarding `Cc1cc(Nc2ncnc3sc4c(c23)CCN(C(=O)/C=C/CN(C)C)C4)ccc1Oc1ccc2[nH]ncc2c1` [Compound 22, (E)-1-(4-((4-((1H-indazol-5-yl)oxy)-3-methylphenyl)amino)-5,8-dihydropyrido[4′,3′:4,5]thieno[2,3-d]pyrimidin-7(6H)-yl)-4-(dimethylamino)but-2-en-1-one], the IC50 at HER2 WT was less than 100 nM; at HER2YVMA, less than 100 nM; on EGFR WT, 1000 to 10000 nM. In test [1], the EC50 was less than 100 nM.
